Experimental data reported in patent US4443603A, “Piperazine derivatives, of aromatic acids” (Kowa Company Limited, priority 1981, dated 1984).

Assays:
Type in all cases: biochemical
Chymotrypsin = Chymotrypsin (Bos taurus, UniProt P00766); assay: Chymotrypsin inhibitory effects (Hestrin color method, acetyl-L-tyrosine ethyl ester substrate); details: pH 8.0, 10 min preincubation, 30 min at 37° C., ethyl ester of acetyl-L-tyrosine; read-out: 50% Inhibitory Concentration, Chymotrypsin
Procedure: Following the procedure of Muramatsu et al [The Journal of Biochemistry, 62, 408 (1967)], a mixture of 0.1 ml of a dimethylsulfoxide solution of each test compound, 0.1 ml of water and 0.1 ml of a buffer solution containing chymotrypsin in an amount of 10 μg/ml (a 0.1 mole trishydrochloric acid buffer solution, pH 8.0) was incubated for 10 minutes, combined with 0.1 ml of a buffer solution containing 25 millimoles of an ethyl ester of acetyl-L-tyrosine and then reacted with the ethyl ester at 37° C. for 30 minutes. The remaining substrate was caused to develop a color in accordance with the Hestrin method, and the amount was determined by measuring the absorbance at 530 nm. As a control compound, use was made of tosylphenylalanine chloromethyl ketone.

Trypsin = target: T1, Trypsin (Bos taurus, UniProt P00760); assay: Trypsin inhibitory effects (Hestrin color method, tosylarginine methyl ester substrate); details: pH 8.0, 10 min preincubation, 30 min at 37° C., methyl ester of tosylarginine; read-out: 50% Inhibitory Concentration, Trypsin
T1 sequence (P00760 24-246): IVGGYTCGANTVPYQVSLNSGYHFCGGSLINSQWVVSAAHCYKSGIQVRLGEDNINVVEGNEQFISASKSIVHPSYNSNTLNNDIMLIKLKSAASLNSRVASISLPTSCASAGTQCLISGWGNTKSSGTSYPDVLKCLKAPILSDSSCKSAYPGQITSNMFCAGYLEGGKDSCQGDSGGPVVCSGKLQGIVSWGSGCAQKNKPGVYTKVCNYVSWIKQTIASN
Procedure: Following the procedure of Muramatsu et al [The Journal of Biochemistry, 58, 214 (1967)], a mixture of 0.1 ml of a dimethylsufoxide solution of each test compound, 0.1 ml of a buffer solution (obtained by dissolving 10 millimoles of calcium chloride in a 0.1 mole trishydrochloric acid buffer solution, pH 8.0) and 0.1 ml of a buffer solution containing trypsin in an amount of 2.5 μg/ml was incubated for 10 minutes, mixed with 0.2 ml of a buffer solution containing 25 millimoles of a methyl ester of tosylarginine and then reacted with the methyl ester at 37° C. for 30 minutes. The remaining substrate was caused to develop a color in accordance with the Hestrin method, and the amount was determined by measuring the absorbance at 530 nm.

Thrombin = Thrombin (Homo sapiens, UniProt P00734); assay: Thrombin inhibitory effects (Hestrin color method, tosylarginine methyl ester substrate); details: pH 7.4, 10 min preincubation, 30 min at 37° C., methyl ester of tosylarginine; read-out: 50% Inhibitory Concentration, Thrombin
Procedure: Following the procedure of Tamura et al [Biochim. Biophys. Acta, 484, 417 (1977)], a mixture of 0.1 ml of a dimethylsulfoxide solution of each test compound, 0.1 ml of a buffer solution (a 0.1 mole sodium phosphate buffer, pH 7.4) and 0.1 ml of a buffer solution containing thrombin in an amount of 37.5 units/ml was incubated for 10 minutes, mixed with 0.2 ml of a buffer solution containing 25 millimoles of a methyl ester of tosylarginine and then reacted with the methyl ester at 37° C. for 30 minutes. The remaining substrate was caused to develop a color in accordance with the Hestrin method, and the amount was determined by measuring the absorbance at 530 nm.

Row | Structure (SMILES) | IC50 (Chymotrypsin) [µM] | IC50 (Trypsin) [µM] | IC50 (Thrombin) [µM]
1 | COc1ccc2[nH]c(C)c(CC(=O)Oc3ccc(C=CC(=O)N4CCN(CC(=O)N5CCCC5)CC4)cc3)c2c1 [Test Compound 10, 1-[4-(5-Methoxy-2-methylindole-3-acetyloxy)cynnamoyl]-4-(pyrrolidinocarbonylmethyl)piperazine] | 0.8 | 600 | 300
2 | CN(C)C(=O)CN1CCN(CCOC(=O)c2ccc(OC(=O)Cc3cccc4ccccc34)cc2)CC1 [Test Compound 4, 4-{[2-[4-(Dimethylaminocarbonylmethyl)piperazino]ethyl]oxycarbonyl}phenyl 1-naphthylacetate] | 0.3 | > 1000 | 9
3 | O=C(OCCN1CCN(CC(=O)N2CCOCC2)CC1)c1ccc(OC(=O)C2CCCc3ccccc32)cc1 (stereo not shown) [Test Compound 3, 4-{[2-[4-(Morpholinocarbonylmethyl)piperazino]ethyl]oxycarbonyl}phenyl 1,2,3,4-tetrahydro-1-naphthoate] | 0.6 | 500 | 90
4 | COc1ccc2[nH]cc(CC(=O)Oc3ccc(C(=O)OCCN4CCN(CC(=O)N5CCCC5)CC4)cc3)c2c1 [Test Compound 8, 4-{[2-[4-(Pyrrolidinocarbonylmethyl)piperazino]ethyl]oxycarbonyl}phenyl 5-methoxyindole-3-acetate] | 0.05 | > 1000 | 600
5 | COc1ccc2c(c1)c(CC(=O)Oc1ccc(C(=O)OCCN3CCN(CC(=O)N4CCCC4)CC3)cc1)c(C)n2C [Test Compound 2, 4-{[2-[4-(Pyrrolidinocarbonylmethyl)piperazino]ethyl]oxycarbonyl}phenyl 1,2-dimethyl-5-methoxyindole-3-acetate] | 0.07 | 500 | 900
6 | Cc1ccc(S(=O)(=O)N[C@@H](Cc2ccccc2)C(=O)CCl)cc1 [TPCK, Tosylphenylalanine chloromethyl ketone, reference compound] | 500 | – | –
7 | COc1ccc2[nH]c(C)c(CC(=O)Oc3ccc(C(=O)OCCN4CCN(CCN5CCOCC5)CC4)cc3)c2c1 [Test Compound 1, 4-{[2-[4-[2-(Morpholino)ethyl]piperazino]ethyl]oxycarbonyl}phenyl 5-methoxy-2-methylindole-3-acetate] | 0.1 | 50 | 100
8 | COc1ccc2[nH]c(C)c(CC(=O)Oc3ccc(C(=O)OCCN4CCN(C)CC4)cc3)c2c1 [Test Compound 9, 4-{[2-(4-Methylpiperazino)ethyl]oxycarbonyl}phenyl 5-methoxy-2-methylindole-3-acetate] | 0.06 | 300 | 40

Further molecules by falling IC50 (Chymotrypsin), results first:

Row | IC50 (Chymotrypsin) [µM] | IC50 (Trypsin) [µM] | IC50 (Thrombin) [µM] | Structure (SMILES)
9 | 0.6 | 200 | 70 | COc1ccc2[nH]c(C)c(CC(=O)Oc3ccc(C(=O)OCCN4CCN(CC(=O)N5CCOCC5)CC4)cc3)c2c1 [Test Compound 7, 4-{[2-[4-(Morpholinocarbonylmethyl)piperazino]ethyl]oxycarbonyl}phenyl 5-methoxy-2-methylindole-3-acetate]
10 | 0.6 | 80 | 100 | COc1ccc2[nH]c(C)c(CC(=O)Oc3ccc(C(=O)NCCN4CCN(CC(=O)N5CCOCC5)CC4)cc3)c2c1 [Test Compound 11, 4-{[2-[4-(Morpholinocarbonylmethyl)piperazino]ethyl]carbamoyl}phenyl 5-methoxy-2-methylindole-3-acetate]
11 | 0.5 | 80 | 60 | COc1ccc2[nH]c(C)c(CC(=O)Oc3ccc(C(=O)OCCN4CCN(CC(=O)N(C)C)CC4)cc3)c2c1 [Test Compound 6, 4-{[2-[4-(Dimethylaminocarbonylmethyl)piperazino]ethyl]oxycarbonyl}phenyl 5-methoxy-2-methylindole-3-acetate]
12 | 0.3 | > 1000 | 9 | O=C(Cc1cccc2ccccc12)Oc1ccc(C(=O)OCCN2CCN(CC(=O)N3CCCCC3)CC2)cc1 [Test Compound 5, 4-{[2-[4-(Piperidinocarbonylmethyl)piperazino]ethyl]oxycarbonyl}phenyl 1-naphtylacetate]
